Source: ChEMBL document CHEMBL4507292 (2021)

How the values were obtained:
[1] = biological target: Tyrosine-protein kinase CSK (Homo sapiens) (UniProt P41240); settings: Compound concentration 1000.0 nM
[2] = biological target: Phosphorylase b kinase regulatory subunit alpha, liver isoform (Homo sapiens) (UniProt P46019); settings: Compound concentration 1000.0 nM
[3] = biological target: Proto-oncogene tyrosine-protein kinase receptor Ret (Homo sapiens) (UniProt P07949); settings: Compound concentration 1000.0 nM
Sequence of Proto-oncogene tyrosine-protein kinase receptor Ret (Homo sapiens) (P07949 whole entry): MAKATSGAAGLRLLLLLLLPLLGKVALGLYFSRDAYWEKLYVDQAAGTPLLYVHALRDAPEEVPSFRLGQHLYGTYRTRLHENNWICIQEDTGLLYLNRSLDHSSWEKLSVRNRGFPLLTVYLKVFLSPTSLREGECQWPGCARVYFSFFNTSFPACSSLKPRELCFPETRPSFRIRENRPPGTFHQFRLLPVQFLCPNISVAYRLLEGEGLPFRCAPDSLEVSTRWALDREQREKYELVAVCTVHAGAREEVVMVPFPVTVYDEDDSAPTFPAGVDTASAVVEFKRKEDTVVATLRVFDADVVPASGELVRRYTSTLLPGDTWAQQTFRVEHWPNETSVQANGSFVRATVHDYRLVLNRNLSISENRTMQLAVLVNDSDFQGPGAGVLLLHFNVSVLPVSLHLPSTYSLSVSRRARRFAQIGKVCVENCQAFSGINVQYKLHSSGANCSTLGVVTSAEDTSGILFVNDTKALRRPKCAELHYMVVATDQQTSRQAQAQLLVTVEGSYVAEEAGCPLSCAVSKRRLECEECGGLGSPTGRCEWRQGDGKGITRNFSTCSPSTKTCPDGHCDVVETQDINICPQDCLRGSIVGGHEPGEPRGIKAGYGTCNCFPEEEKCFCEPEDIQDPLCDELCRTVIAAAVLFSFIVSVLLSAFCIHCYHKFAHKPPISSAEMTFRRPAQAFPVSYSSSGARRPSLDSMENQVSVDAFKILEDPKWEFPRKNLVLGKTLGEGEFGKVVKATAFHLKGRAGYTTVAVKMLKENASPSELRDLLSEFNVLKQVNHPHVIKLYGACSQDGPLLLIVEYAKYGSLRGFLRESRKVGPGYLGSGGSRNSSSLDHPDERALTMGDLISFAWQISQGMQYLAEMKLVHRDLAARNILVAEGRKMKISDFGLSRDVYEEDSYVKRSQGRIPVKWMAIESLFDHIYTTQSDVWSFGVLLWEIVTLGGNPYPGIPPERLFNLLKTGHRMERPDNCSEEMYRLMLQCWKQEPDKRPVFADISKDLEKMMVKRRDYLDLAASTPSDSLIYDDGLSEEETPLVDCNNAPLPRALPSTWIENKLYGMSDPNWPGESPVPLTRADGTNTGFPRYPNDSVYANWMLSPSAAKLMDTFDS

[4] = biological target: Cyclin-dependent kinase 2 homolog (Plasmodium falciparum (isolate 3D7)) (UniProt P61075); settings: Compound concentration 1000.0 nM
[5] = biological target: Dual specificity tyrosine-phosphorylation-regulated kinase 2 (Homo sapiens) (UniProt Q92630); settings: Compound concentration 1000.0 nM
[6] = tested on: Epidermal growth factor receptor (Homo sapiens), P00533 [UNDEFINED MUTATION]; settings: Compound concentration 1000.0 nM
Sequence of Epidermal growth factor receptor (Homo sapiens), P00533 [UNDEFINED MUTATION] (P00533 whole entry, looked up, change not shown): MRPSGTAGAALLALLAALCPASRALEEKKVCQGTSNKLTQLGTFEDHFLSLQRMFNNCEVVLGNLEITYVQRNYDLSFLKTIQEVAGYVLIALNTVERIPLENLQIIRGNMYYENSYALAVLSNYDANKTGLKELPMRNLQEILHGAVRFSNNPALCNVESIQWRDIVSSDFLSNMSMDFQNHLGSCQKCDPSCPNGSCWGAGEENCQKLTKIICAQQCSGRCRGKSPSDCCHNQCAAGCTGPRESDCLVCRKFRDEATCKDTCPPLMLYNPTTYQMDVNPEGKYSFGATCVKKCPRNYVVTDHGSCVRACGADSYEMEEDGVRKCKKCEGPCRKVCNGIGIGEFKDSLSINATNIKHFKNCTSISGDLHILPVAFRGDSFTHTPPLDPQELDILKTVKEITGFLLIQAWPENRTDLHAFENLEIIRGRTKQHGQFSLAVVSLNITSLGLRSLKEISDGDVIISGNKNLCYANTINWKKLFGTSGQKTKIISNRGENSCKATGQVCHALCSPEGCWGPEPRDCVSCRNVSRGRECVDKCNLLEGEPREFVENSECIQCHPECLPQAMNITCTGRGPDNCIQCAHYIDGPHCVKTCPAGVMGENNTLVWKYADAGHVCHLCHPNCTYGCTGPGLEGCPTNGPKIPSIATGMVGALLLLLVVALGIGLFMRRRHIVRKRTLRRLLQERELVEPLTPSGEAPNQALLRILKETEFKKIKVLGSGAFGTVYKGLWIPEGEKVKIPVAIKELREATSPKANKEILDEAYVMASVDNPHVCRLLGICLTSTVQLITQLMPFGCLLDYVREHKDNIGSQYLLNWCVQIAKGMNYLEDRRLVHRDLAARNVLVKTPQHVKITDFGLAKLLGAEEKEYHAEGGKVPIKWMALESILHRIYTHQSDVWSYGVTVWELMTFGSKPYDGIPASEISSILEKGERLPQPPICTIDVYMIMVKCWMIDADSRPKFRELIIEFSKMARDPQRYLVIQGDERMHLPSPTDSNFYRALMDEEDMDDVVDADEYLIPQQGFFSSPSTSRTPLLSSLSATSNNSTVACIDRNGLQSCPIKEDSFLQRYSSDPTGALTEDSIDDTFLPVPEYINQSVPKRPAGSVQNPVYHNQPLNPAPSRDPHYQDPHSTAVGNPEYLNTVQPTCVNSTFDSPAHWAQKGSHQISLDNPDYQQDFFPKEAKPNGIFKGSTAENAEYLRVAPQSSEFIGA

[7] = biological target: Serine/threonine-protein kinase 32A (Homo sapiens) (UniProt Q8WU08); settings: Compound concentration 1000.0 nM
[8] = biological target: Tyrosine-protein kinase Fes/Fps (Homo sapiens) (UniProt P07332); settings: Compound concentration 1000.0 nM
[9] = biological target: T1, Alpha-1D adrenergic receptor (Homo sapiens) (UniProt P25100); settings: Compound concentration 10.0 uM
T1 sequence (whole entry): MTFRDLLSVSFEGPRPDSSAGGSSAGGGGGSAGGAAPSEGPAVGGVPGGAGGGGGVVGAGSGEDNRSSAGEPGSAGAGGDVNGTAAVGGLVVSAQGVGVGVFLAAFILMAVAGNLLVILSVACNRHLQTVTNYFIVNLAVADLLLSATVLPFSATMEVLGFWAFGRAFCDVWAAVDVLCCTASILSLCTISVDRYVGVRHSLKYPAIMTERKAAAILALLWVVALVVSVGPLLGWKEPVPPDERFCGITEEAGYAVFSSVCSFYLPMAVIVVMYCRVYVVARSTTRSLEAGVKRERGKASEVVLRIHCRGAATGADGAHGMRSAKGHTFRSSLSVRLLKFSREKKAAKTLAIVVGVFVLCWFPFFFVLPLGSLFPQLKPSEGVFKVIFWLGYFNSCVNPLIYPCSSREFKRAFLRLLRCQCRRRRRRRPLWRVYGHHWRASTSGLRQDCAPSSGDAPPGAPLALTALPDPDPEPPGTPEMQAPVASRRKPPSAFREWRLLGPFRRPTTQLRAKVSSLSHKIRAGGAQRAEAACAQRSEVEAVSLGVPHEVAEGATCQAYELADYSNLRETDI

[10] = biological target: Tyrosine-protein kinase ABL2 (Homo sapiens) (UniProt P42684); settings: Compound concentration 1000.0 nM
[11] = biological target: Mitogen-activated protein kinase kinase kinase 10 (Homo sapiens) (UniProt Q02779); settings: Compound concentration 1000.0 nM
[12] = biological target: Tyrosine-protein kinase Srms (Homo sapiens) (UniProt Q9H3Y6); settings: Compound concentration 1000.0 nM
Sequence of Tyrosine-protein kinase Srms (Homo sapiens) (Q9H3Y6 whole entry): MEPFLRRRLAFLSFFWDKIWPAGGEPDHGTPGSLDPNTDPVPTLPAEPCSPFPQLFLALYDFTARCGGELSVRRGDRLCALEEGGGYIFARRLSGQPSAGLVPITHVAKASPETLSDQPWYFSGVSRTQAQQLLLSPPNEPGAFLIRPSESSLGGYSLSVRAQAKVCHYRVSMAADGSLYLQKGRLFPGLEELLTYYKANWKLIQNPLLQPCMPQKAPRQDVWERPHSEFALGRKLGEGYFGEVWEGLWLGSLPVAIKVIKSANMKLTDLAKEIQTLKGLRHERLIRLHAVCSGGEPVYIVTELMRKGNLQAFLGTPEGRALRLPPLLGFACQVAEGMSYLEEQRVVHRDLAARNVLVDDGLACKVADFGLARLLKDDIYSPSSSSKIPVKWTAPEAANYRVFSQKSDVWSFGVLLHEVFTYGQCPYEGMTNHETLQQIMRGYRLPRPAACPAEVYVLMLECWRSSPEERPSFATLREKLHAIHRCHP

[13] = biological target: Aurora kinase B (Homo sapiens) (UniProt Q96GD4); settings: Compound concentration 1000.0 nM
Sequence of Aurora kinase B (Homo sapiens) (Q96GD4 whole entry): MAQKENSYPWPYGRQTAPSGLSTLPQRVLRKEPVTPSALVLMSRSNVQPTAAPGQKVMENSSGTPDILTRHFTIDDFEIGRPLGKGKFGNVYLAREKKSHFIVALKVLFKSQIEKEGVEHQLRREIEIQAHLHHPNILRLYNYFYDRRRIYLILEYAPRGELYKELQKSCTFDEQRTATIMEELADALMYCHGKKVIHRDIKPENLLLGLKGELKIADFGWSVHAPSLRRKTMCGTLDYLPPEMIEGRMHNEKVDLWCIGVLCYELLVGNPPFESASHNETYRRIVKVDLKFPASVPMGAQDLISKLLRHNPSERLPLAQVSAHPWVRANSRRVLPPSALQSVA

[14] = biological target: Platelet-derived growth factor receptor beta (Homo sapiens) (UniProt P09619); settings: Compound concentration 1000.0 nM
[15] = biological target: Ribosomal protein S6 kinase alpha-4 (Homo sapiens) (UniProt O75676); settings: Compound concentration 1000.0 nM
[16] = tested on: Receptor-type tyrosine-protein kinase FLT3 (Homo sapiens), P36888 [UNDEFINED MUTATION]; settings: Compound concentration 1000.0 nM
[17] = biological target: Epidermal growth factor receptor (Homo sapiens, UniProt P00533); settings: Compound concentration 1000.0 nM
[18] = biological target: Sodium-dependent dopamine transporter (Homo sapiens, UniProt Q01959); settings: Compound concentration 10.0 uM
[19] = biological target: Serine/threonine-protein kinase PLK1 (Homo sapiens) (UniProt P53350); settings: Compound concentration 1000.0 nM
[20] = biological target: 1-phosphatidylinositol 3-phosphate 5-kinase (Homo sapiens) (UniProt Q9Y2I7); settings: Compound concentration 1000.0 nM
[21] = biological target: NT-3 growth factor receptor (Homo sapiens) (UniProt Q16288); settings: Compound concentration 1000.0 nM
[22] = tested on: Tyrosine-protein kinase ABL1 (Homo sapiens), P00519 [T315I]; settings: Compound concentration 1000.0 nM
[23] = tested on: Tyrosine-protein kinase ABL1 (Homo sapiens), P00519 [H396P]; settings: Compound concentration 1000.0 nM
[24] = biological target: Serine/threonine-protein kinase tousled-like 1 (Homo sapiens) (UniProt Q9UKI8); settings: Compound concentration 1000.0 nM
[25] = biological target: Cyclin-dependent kinase-like 3 (Homo sapiens) (UniProt Q8IVW4); settings: Compound concentration 1000.0 nM
[26] = biological target: RAC-alpha serine/threonine-protein kinase (Homo sapiens) (UniProt P31749); settings: Compound concentration 1000.0 nM
Sequence of RAC-alpha serine/threonine-protein kinase (Homo sapiens) (P31749 whole entry, canonical isoform): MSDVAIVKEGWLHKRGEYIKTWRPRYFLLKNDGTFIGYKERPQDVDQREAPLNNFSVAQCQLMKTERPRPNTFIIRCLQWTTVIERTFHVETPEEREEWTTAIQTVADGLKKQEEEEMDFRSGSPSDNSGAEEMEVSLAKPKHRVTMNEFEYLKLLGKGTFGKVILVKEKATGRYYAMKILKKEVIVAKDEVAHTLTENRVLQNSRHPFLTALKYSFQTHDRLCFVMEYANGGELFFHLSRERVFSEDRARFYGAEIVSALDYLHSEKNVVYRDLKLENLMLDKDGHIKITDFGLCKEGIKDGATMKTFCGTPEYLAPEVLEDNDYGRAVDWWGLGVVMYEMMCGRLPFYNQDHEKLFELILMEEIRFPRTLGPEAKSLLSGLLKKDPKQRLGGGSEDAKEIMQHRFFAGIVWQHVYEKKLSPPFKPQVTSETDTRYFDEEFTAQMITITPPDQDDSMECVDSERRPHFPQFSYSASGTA

[27] = biological target: Casein kinase I isoform epsilon (Homo sapiens) (UniProt P49674); settings: Compound concentration 1000.0 nM
[28] = biological target: Myosin light chain kinase family member 4 (Homo sapiens) (UniProt Q86YV6); settings: Compound concentration 1000.0 nM
[29] = tested on: Epidermal growth factor receptor (Homo sapiens), P00533 [UNDEFINED MUTATION]; settings: Compound concentration 1000.0 nM; remark: listed apart in the source
[30] = biological target: Serine/threonine-protein kinase OSR1 (Homo sapiens) (UniProt O95747); settings: Compound concentration 1000.0 nM
[31] = biological target: Ribosomal protein S6 kinase alpha-2 (Homo sapiens) (UniProt Q15349); settings: Compound concentration 1000.0 nM
[32] = biological target: Tyrosine-protein kinase Mer (Homo sapiens) (UniProt Q12866); settings: Compound concentration 1000.0 nM
[33] = biological target: Ephrin type-B receptor 4 (Homo sapiens) (UniProt P54760); settings: Compound concentration 1000.0 nM
[34] = biological target: Dual specificity mitogen-activated protein kinase kinase 3 (Homo sapiens) (UniProt P46734); settings: Compound concentration 1000.0 nM
Sequence of Dual specificity mitogen-activated protein kinase kinase 3 (Homo sapiens) (P46734 whole entry): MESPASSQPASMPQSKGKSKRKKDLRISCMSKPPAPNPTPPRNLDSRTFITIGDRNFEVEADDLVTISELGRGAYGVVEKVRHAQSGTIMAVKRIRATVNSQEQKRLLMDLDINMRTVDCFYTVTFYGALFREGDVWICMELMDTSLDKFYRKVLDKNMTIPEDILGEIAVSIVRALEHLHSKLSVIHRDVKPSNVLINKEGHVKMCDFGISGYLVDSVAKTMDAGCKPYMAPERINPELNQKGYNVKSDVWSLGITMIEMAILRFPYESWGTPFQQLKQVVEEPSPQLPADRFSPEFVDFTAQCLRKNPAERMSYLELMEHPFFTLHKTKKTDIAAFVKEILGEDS

[35] = biological target: Serine/threonine-protein kinase TAO3 (Homo sapiens) (UniProt Q9H2K8); settings: Compound concentration 1000.0 nM
[36] = biological target: Casein kinase I isoform alpha-like (Homo sapiens) (UniProt Q8N752); settings: Compound concentration 1000.0 nM
[37] = biological target: Serine/threonine-protein kinase LATS2 (Homo sapiens) (UniProt Q9NRM7); settings: Compound concentration 1000.0 nM
Sequence of Serine/threonine-protein kinase LATS2 (Homo sapiens) (Q9NRM7 whole entry): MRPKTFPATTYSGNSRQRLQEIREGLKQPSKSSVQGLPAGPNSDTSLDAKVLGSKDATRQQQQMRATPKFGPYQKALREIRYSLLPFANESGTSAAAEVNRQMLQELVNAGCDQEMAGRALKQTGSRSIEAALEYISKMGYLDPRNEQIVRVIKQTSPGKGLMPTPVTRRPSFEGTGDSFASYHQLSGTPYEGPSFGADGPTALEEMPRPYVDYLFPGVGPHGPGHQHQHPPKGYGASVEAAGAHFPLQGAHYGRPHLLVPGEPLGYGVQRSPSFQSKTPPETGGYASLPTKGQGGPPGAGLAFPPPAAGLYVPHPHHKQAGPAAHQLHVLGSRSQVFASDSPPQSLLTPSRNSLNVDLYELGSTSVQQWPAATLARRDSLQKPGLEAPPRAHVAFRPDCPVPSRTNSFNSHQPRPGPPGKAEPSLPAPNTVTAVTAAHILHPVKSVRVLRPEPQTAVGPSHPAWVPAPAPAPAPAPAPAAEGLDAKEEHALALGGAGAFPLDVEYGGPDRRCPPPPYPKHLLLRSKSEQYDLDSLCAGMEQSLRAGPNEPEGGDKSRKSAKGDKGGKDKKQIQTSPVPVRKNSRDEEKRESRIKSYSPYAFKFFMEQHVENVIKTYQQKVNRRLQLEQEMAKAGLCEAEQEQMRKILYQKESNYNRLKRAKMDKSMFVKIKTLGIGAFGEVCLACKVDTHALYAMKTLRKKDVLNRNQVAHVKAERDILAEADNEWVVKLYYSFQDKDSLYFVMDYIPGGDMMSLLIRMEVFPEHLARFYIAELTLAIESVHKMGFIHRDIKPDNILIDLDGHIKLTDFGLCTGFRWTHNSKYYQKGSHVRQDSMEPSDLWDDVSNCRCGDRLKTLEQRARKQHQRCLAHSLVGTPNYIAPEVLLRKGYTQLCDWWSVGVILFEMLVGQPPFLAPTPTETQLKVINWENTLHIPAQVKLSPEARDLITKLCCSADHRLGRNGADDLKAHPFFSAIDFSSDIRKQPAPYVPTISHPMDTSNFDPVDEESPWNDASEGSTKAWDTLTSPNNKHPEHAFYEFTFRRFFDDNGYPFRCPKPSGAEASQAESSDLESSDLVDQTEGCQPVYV

Cc1c(C(=O)O)cc(-c2ccc(C3CCNCC3)cc2)c2ccc(-c3ccc(C(F)(F)F)cc3)cc12 [PPTN-NC]
inactive: residual activity [1] 100% | residual activity [2] 100% | residual activity [3] 99% | residual activity [4] 100% | residual activity [5] 100% | residual activity [6] 100% | residual activity [7] 89% | residual activity [8] 100% | inhibition [9] 13.3% | residual activity [10] 100% | residual activity [11] 100% | residual activity [12] 100% | residual activity [13] 100% | residual activity [14] 100% | residual activity [15] 88% | residual activity [16] 81% | residual activity [17] 100% | inhibition [18] 31.2% | residual activity [19] 94% | residual activity [20] 100% | residual activity [21] 100% | residual activity [22] 82% | residual activity [23] 99% | residual activity [24] 100% | residual activity [25] 100% | residual activity [26] 100% | residual activity [27] 96% | residual activity [28] 100% | residual activity [29] 100% | residual activity [30] 100% | residual activity [31] 100% | residual activity [32] 91% | residual activity [33] 100% | residual activity [34] 100% | residual activity [35] 100% | residual activity [36] 100% | residual activity [37] 100%

O=C(O)c1cc(-c2ccc(C3CCNCC3)cc2)c2ccc(-c3ccc(C(F)(F)F)cc3)cc2c1 [PPTN]
inactive: residual activity [1] 100% | residual activity [2] 100% | residual activity [3] 90% | residual activity [4] 100% | residual activity [5] 100% | residual activity [6] 100% | residual activity [7] 100% | residual activity [8] 100% | inhibition [9] 33.5% | residual activity [10] 100% | residual activity [11] 100% | residual activity [12] 100% | residual activity [13] 100% | residual activity [14] 100% | residual activity [15] 100% | residual activity [16] 99% | residual activity [17] 100% | inhibition [18] 37.7% | residual activity [19] 88% | residual activity [20] 100% | residual activity [21] 100% | residual activity [22] 74% | residual activity [23] 86% | residual activity [24] 100% | residual activity [25] 94% | residual activity [26] 99% | residual activity [27] 100% | residual activity [28] 94% | residual activity [29] 100% | residual activity [30] 100% | residual activity [31] 100% | residual activity [32] 85% | residual activity [33] 100% | residual activity [34] 100% | residual activity [35] 100% | residual activity [36] 100% | residual activity [37] 100%
